The values that follow come from patent US20060089371A1, “Phenyl or heteroaryl amino alkane derivatives as ip receptor antagonist” (Bayer HealthCare AG, priority 2002, published 2006).

In general, IC50 refers to the concentration at which inhibition is half-maximal. As a reminder, the melting point is the temperature, or range, at which the solid turns liquid.

SMILES strings stand for the structures. Some results are limits rather than exact numbers.

One data set concerns the target T1, IP receptor (Homo sapiens, UniProt P43119).
T1 construct: one million cells in 160 μl aliquot of cell suspension were put in a well of 96 well plate; host or cells: HEL 92.1.7 human erythroleukemia cells (whole cells)
Briefly: IP receptor binding/cAMP in HEL cells ([3H]-iloprost binding, Assay 1; iloprost-induced cAMP production, Assay 2). The conditions noted are these: compounds of about 40 to 90% purity, read-out: In vitro activity grade (IC50 class). The procedure, abridged:
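For binding (Assay 1), 1×10^6 HEL 92.1.7 cells in 50 mM Tris-HCl, 5 mM MgCl2, pH 7.5 were incubated with [3H]-iloprost (0.02 μCi) for 30 min at RT and filter-counted; a 100 μM iloprost solution defined non-specific binding. Compounds were of 40-90% purity.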

T1 sequence (P43119 whole entry): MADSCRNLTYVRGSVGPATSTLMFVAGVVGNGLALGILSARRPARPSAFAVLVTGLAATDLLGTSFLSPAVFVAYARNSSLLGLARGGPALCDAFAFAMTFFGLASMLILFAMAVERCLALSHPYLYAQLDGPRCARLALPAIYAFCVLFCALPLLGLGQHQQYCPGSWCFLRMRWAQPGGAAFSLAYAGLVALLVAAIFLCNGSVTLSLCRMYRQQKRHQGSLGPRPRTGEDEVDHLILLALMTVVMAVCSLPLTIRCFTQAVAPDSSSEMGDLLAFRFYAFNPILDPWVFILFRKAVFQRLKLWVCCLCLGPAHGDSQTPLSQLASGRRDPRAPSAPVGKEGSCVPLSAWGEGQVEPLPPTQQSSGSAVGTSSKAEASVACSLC

For `O=C(O)C(Cc1ccccn1)Nc1cc(-c2ccc(OCc3cc(F)cc(F)c3)cc2)ncn1` (stereo not shown) [Example 2-39], the melting point is 90 to 92 °C. For the same molecule, the IC50 on IP receptor was under 100 nM.
With `CCCCC(Nc1cc(-c2ccc(OCCc3ccccc3)cc2)ncn1)C(=O)O` (stereo not shown) [Example 2-40], the melting point was 86 to 88 °C. The IC50 on IP receptor is under 100 nM.
For the molecule `CCCCC(Nc1cc(-c2ccc(OCc3cccc(OC)c3)cc2)ncn1)C(=O)O` (stereo not shown) [Example 2-44], the melting point is 115 to 118 °C. The IC50 at IP receptor is under 100 nM.
`CCCCC(Nc1cc(-c2ccc(OCc3cc(OC)cc(OC)c3)cc2)ncn1)C(=O)O` (stereo not shown) [Example 2-45] registered a melting point of 88 to 93 °C. For the same molecule, the IC50 at IP receptor is under 100 nM.
As to `CCCCC(Nc1cc(-c2ccc(OCc3cc(F)cc(F)c3)cc2)ncn1)C(=O)O` (stereo not shown) [Example 2-46], the melting point was 141 to 147 °C. Further, the IC50 on IP receptor was under 100 nM.
Molecule `O=C(O)C(Cc1ccccc1)Nc1cncc(-c2ccc(OCc3ccccc3)cc2)n1` (stereo not shown) [Example 3-2] came in with a melting point of 89 to 92 °C. Further, the IC50 at IP receptor is over 1000 nM.
Regarding `O=C(O)C(Cc1ccccc1)Nc1cccc(-c2ccc(OCc3ccccc3)cc2)n1` (stereo not shown) [Example 3-3], the melting point lay within 81 to 84 °C. Besides, the IC50 at IP receptor is over 1000 nM.
`O=C(O)C(Cc1ccccc1)Nc1cc(-c2ccc(OCc3ccccc3)cc2)ccn1` (stereo not shown) [Example 3-4] came in with a melting point of 194 to 196 °C. The IC50 on IP receptor is under 100 nM.
Molecule `CN(C)CCOc1cccc(C[C@H](Nc2cc(-c3ccc(OCc4ccccc4)cc3)ncn2)C(=O)O)c1` [Example 4-1, N-{6-[4-(Benzyloxy)phenyl]pyrimidin-4-yl}-3-[2-(dimethylamino)ethoxy]phenylalanine] registered a melting point of 143.1 °C. In addition, the 50% inhibitory concentration (IC50) on IP receptor is under 100 nM.
`NCCOc1cccc(C[C@H](Nc2cc(-c3ccc(OCc4ccccc4)cc3)ncn2)C(=O)O)c1` [Example 5-1, 3-(2-Aminoethoxy)-N-{6-[4-(benzyloxy)phenyl]pyrimidin-4-yl}phenylalanine]: the melting point amounted to 153.8 °C. Moreover, the half-inhibitory concentration (IC50) at IP receptor is under 100 nM.
On to `O=C(O)[C@H](Cc1ccccc1)Nc1cc(-c2ccc(/C=C/c3ccccc3)cc2)ncn1` [Example 7-1, N-(6-{4-[(E)-2-Phenylvinyl]phenyl}pyrimidin-4-yl)phenylalanine], for which the melting point is 214 to 216 °C (dec.). Further, the IC50 on IP receptor is under 100 nM.
On to `O=C(O)[C@H](Cc1ccccc1)Nc1cc(-c2ccc(C#Cc3ccccc3)cc2)ncn1` [Example 9-1, N-{6-[4-(Phenylethynyl)phenyl]pyrimidin-4-yl}phenylalanine], for which the melting point was 215 to 218 °C (dec.). Also, on IP receptor, the IC50 is under 100 nM.
Regarding `O=C(O)[C@H](Cc1ccccc1)Nc1cc(-c2ccc(/C=C\c3ccccc3)cc2)ncn1` [Example 10-1, N-(6-{4-[(Z)-2-Phenylvinyl]phenyl}pyrimidin-4-yl)phenylalanin], the melting point was 217 to 220 °C (dec.). Also, the IC50 on IP receptor is under 100 nM.
In the case of `O=C(O)C(Cc1ccccc1)Nc1cc(-c2ccc(-c3ccc4c(c3)OCO4)cc2)ncn1` (stereo not shown) [Example 11-2], the melting point is 139 to 142 °C (dec.). For the same molecule, the IC50 at IP receptor is under 100 nM.
As to `CSc1ccc(-c2ccc(-c3cc(NC(Cc4ccccc4)C(=O)O)ncn3)cc2)cc1` (stereo not shown) [Example 11-3], the melting point is 135 to 137 °C (dec.). In addition, on IP receptor, the IC50 was under 100 nM.
For `COc1cccc(-c2ccc(-c3cc(NC(Cc4ccccc4)C(=O)O)ncn3)cc2)c1` (stereo not shown) [Example 11-4] the same measures were 112 to 114 °C (dec.) and under 100 nM.
As to `O=C(O)C(Cc1ccccc1)Nc1cc(-c2ccc(-c3ccc4ccccc4c3)cc2)ncn1` (stereo not shown) [Example 11-5], the melting point is 130 to 132 °C (dec.). The IC50 at IP receptor was under 100 nM.
For `O=C(O)C(Cc1ccccc1)Nc1cc(-c2ccc(-c3cccc(-c4ccccc4)c3)cc2)ncn1` (stereo not shown) [Example 11-6] the same measures were 124 to 126 °C (dec.) and 100 to 1000 nM.
Take `O=C(O)C(Cc1ccccc1)Nc1cc(-c2ccc(-c3cccc4ccccc34)cc2)ncn1` (stereo not shown) [Example 11-7]: the melting point was 135 to 138 °C (dec.). Besides, the IC50 on IP receptor was in the range of 100 to 1000 nM.
For `O=C(O)C(Cc1ccccc1)Nc1cc(-c2ccc(-c3cccc([N+](=O)[O-])c3)cc2)ncn1` (stereo not shown) [Example 11-9], the melting point is 125 to 127 °C (dec.). At IP receptor, the IC50 is under 100 nM.
Regarding `COc1ccccc1-c1ccc(-c2cc(NC(Cc3ccccc3)C(=O)O)ncn2)cc1` (stereo not shown) [Example 11-10], the melting point is 121 to 123 °C (dec.). In addition, the IC50 at IP receptor is 100 to 1000 nM.
In the case of `O=C(O)C(Cc1ccccc1)Nc1cc(-c2ccc(-c3ccc(Oc4ccccc4)cc3)cc2)ncn1` (stereo not shown) [Example 11-11], the melting point was 120 to 123 °C (dec.). Further, at IP receptor, the IC50 fell in the range of 100 to 1000 nM.
For `COc1cc(-c2ccc(-c3cc(NC(Cc4ccccc4)C(=O)O)ncn3)cc2)cc(OC)c1OC` (stereo not shown) [Example 11-12] the same measures were 120 to 123 °C and 100 to 1000 nM.
As for `O=C(Nc1ccc(-c2cc(N[C@@H](Cc3ccccc3)C(=O)O)ncn2)cc1)c1ccccc1` [Example 14-1, N-{6-[4-(Benzoylamino)phenyl]pyrimidin-4-yl}phenylalanine], the melting point is 250 to 252 °C (dec.). Besides, on IP receptor, the IC50 fell in the range of 100 to 1000 nM.
For the molecule `CC(C)(C)OC(=O)Nc1ccc(-c2cc(NC(Cc3ccccc3)C(=O)O)ncn2)cc1` (stereo not shown) [Example 14-2], the melting point is 153 to 155 °C (dec.). Moreover, the IC50 at IP receptor fell in the range of 100 to 1000 nM.
In the case of `O=C(Cc1ccccc1)Nc1ccc(-c2cc(NC(Cc3ccccc3)C(=O)O)ncn2)cc1` (stereo not shown) [Example 14-3], the melting point was 145 to 148 °C (dec.). In addition, the IC50 at IP receptor fell in the range of 100 to 1000 nM.
In the case of `O=C(O)C(Cc1ccccc1)Nc1cc(-c2ccc(NS(=O)(=O)c3ccc(F)cc3)cc2)ncn1` (stereo not shown) [Example 15-2], the melting point is 217 to 220 °C (dec.). For the same molecule, on IP receptor, the IC50 was over 1000 nM.
For `O=C(c1ccccc1)c1ccc(-c2cc(N[C@@H](Cc3ccccc3)C(=O)O)ncn2)cc1` [Example 17-1, N-[6-(4-Benzoylphenyl)pyrimidin-4-yl]phenylalanine] the same measures were 109 to 111 °C and under 100 nM.
For `O=C(c1ccc(-c2cc(NC(Cc3ccccc3)C(=O)O)ncn2)cc1)C1CCCCC1` (stereo not shown) [Example 17-2] the same measures were 116 to 119 °C and 100 to 1000 nM.
In turn, `O=C(c1ccc(-c2cc(NC(Cc3ccccc3)C(=O)O)ncn2)cc1)C1CCCC1` (stereo not shown) [Example 17-3] displayed a melting point of 114 to 116 °C. For the same molecule, the IC50 at IP receptor was under 100 nM.
In turn, `O=C(c1ccc(F)cc1)c1ccc(-c2cc(NC(Cc3ccccc3)C(=O)O)ncn2)cc1` (stereo not shown) [Example 17-4] gave a melting point of 115 to 117 °C. Also, at IP receptor, the IC50 was under 100 nM.
For `O=C(c1ccc(Cl)cc1)c1ccc(-c2cc(NC(Cc3ccccc3)C(=O)O)ncn2)cc1` (stereo not shown) [Example 17-5] the same measures were 123 to 126 °C and under 100 nM.
For `O=C(O)C(Cc1ccccc1)Nc1cc(-c2ccc(Cc3ccc(F)cc3)cc2)ncn1` (stereo not shown) [Example 18-2] the same measures were 98 to 101 °C and 100 to 1000 nM.
As for `O=C(O)C(Cc1ccccc1)Nc1cc(-c2ccc(Cc3ccc(Cl)cc3)cc2)ncn1` (stereo not shown) [Example 18-3], the melting point lay within 105 to 107 °C. Also, the IC50 at IP receptor fell in the range of 100 to 1000 nM.
Turning to `O=C(O)C(Cc1ccccc1)Nc1cc(-c2ccc(CNCc3ccccc3)cc2)ncn1` (stereo not shown) [Example 19-2], the melting point was 173 to 176 °C (dec.). In addition, the IC50 at IP receptor lay within 100 to 1000 nM.
The molecule `O=C(O)C(Cc1ccccc1)Nc1cc(-c2ccc(CN3CCc4ccccc4C3)cc2)ncn1` (stereo not shown) [Example 19-4] displayed a melting point of 148 to 150 °C. Also, the IC50 on IP receptor is over 1000 nM.
The molecule `O=C(O)C(Cc1ccccn1)Nc1cc(-c2ccc(COc3ccccc3)cc2)ncn1` (stereo not shown) [Example 20-2] had a melting point of 81 to 84 °C. In addition, the IC50 at IP receptor was under 100 nM.
Consider `O=C(O)[C@H](Cc1ccccc1)Nc1cc(-c2ccc(/C=N/Oc3ccccc3)cc2)ncn1` [Example 21-1, N-(6-{4-[(E)-(phenoxyimino)methyl]phenyl}pyrimidin-4-yl)phenylalanine], for which the melting point came out at 152.8 °C. In addition, the concentration for half-maximal inhibition (IC50) on IP receptor is under 100 nM.
Take `O=Cc1c(N[C@@H](Cc2ccccc2)C(=O)O)ncnc1-c1ccc(OCc2ccccc2)cc1` [Example 22-1, N-{6-[4-(Benzyloxy)phenyl)-5-formylpyrimidin-4-yl}phenylalanine]: the melting point was over 300 °C. Also, on IP receptor, the IC50 is 100 to 1000 nM.
As to `O=C(O)[C@H](Cc1ccccc1)Nc1ncnc(-c2ccc(OCc3ccccc3)cc2)c1CO` [Example 23-1, N-[6-[4-(Benzyloxy)phenyl]-5-(hydroxymethyl)pyrimidin-4-yl]phenylalanine], the melting point lay in the range of 114 to 117 °C. In addition, at IP receptor, the IC50 was 100 to 1000 nM.
`O=C(O)[C@H](Cc1ccccc1)Nc1cccc(-c2ccc(OCc3ccccc3)cc2)c1` [Example 24-1, N-[4′-(Benzyloxy)biphenyl-3-yl]phenylalanine] returned a melting point of 152 to 154 °C. Moreover, the IC50 at IP receptor was under 100 nM.
In turn, `COc1cccc(COc2ccc(-c3cccc(N[C@@H](Cc4ccccc4)C(=O)O)c3)cc2)c1` [Example 24-2, N-{4′-[(3-Methoxybenzyl)oxy]biphenyl-3-yl}phenylalanine] displayed a melting point of 159 to 162 °C. In addition, the IC50 on IP receptor was under 100 nM.
As to `COc1cc(COc2ccc(-c3cccc(NC(Cc4ccccc4)C(=O)O)c3)cc2)cc(OC)c1` (stereo not shown) [Example 24-3], the melting point was 166 to 168 °C. Also, the IC50 at IP receptor was under 100 nM.
For `O=C(O)C(Cc1ccccc1)Nc1cccc(-c2ccc(OCc3ccccc3F)cc2)c1` (stereo not shown) [Example 24-4] the same measures were 158 to 161 °C and under 100 nM.
